{
  "source": "paper PMC10149936",
  "about": "“Cofilin activation in pancreatic acinar cells plays a pivotal convergent role for mediating CCK-stimulated enzyme secretion and growth” (Frontiers in Physiology, 2023)",
  "key": {"[1]": {"system": "cofilin (pS3) in rat pancreatic acini", "assay": "cofilin activation (phospho-pS3 cofilin Western blot) in isolated rat pancreatic acini", "format": "cell-based", "conditions": "for reversal of cofilin dephosphorylation by CCK-8: Wortmannin 1 µM, LY294002 100 µM, SB202190 10 µM, U0126 10 µM, Y-27632 10 µM 1 h, SP600125 20 µM 3 h; for decrease of basal level of cofilin phosphorylation / inhibition of cofilin activation stimulated by CCK-8: calyculin A 1 nM or okadaic acid 10 nM", "experimental": "Pancreatic acini preparations were obtained by collagenase digestion as previously described ([Bissonnette et al., 1984]; [Sato et al., 1989]; [Ramos-Alvarez and Jensen, 2018]). After collagenase digestion, dispersed acini were preincubated with different inhibitors in standard incubation solution ([Ramos-Alvarez and Jensen, 2018]; [Ramos-Ãlvarez et al., 2020]) for 3 h at 37°C under conditions specific for PKD/PKC, Src, PI3K, MAPKs, SSH1, LIMK, cofilin, other phosphatases and PAK4 inhibitors, as described previously ([Ramos-Alvarez and Jensen, 2018]; [Ramos-Ãlvarez et al., 2020]). Isolated acini and CCK1-R/Panc-1 cells (M&M 2.2.1) were also preincubated with two SSH1 inhibitors, D3 (25 μM, 1 h) ([Li et al., 2015]) or SE (50 μM, 3 h for acini; 24 h for CCK1-R/Panc-1 cells) ([Lee et al., 2017]). After preincubation, 1 mL aliquots of dispersed acini were incubated at 37°C for 3–15 min with CCK-8 (0.3 nM or 100 nM), for 5–15 min with TPA (1 µM) or without stimulants, used as control. Cells were lysed in lysis buffer (50 mM Tris/HCl pH 7.5, 150 mM NaCl, 1% Triton X-100, 1% deoxycholate, 0.1% sodium azide, 1 mM EGTA, 0.4 mM EDTA, 0.2 mM sodium orthovanadate, 1 mM PMSF, and one protease inhibitor tablet per 10 mL). After sonication, lysates were centrifuged at 10,000×g for 15 min at 4°C and protein concentration was measured using the Bio-Rad protein assay reagent. Finally, cells were processed as below for Western blotting.\nBoth concentrations of CCK-8 were used because CCK-8 is reported to have different responses with physiological and supraphysiological concentrations contributing to physiological and pathophysiological processes such as pancreatitis ([Dufresne et al., 2006]).\nWestern blotting and immunoprecipitation were performed as described previously ([Ramos-Alvarez and Jensen, 2018]). Whole cell lysates were subjected to SDS-PAGE using 4%–20% Tris–Glycine gels. […] Finally, membranes were then washed again twice in blocking buffer for 4 min, twice in washing buffer for 4 min, incubated for 4 min with chemiluminescence detection reagents. The intensity of the protein bands was measured using GeneTools software from Syngene, which were assessed in the linear detection range.\nAll experiments were performed at least 3 times. Data are presented as mean ± SEM and were analyzed with the non-parametric Kruskal–Wallis analysis (data was not normally distributed) and the Dunn’s multiple comparison test using the GraphPad Prism 8.0 software. P values < 0.05 were considered significant.\n(A) Isolated pancreatic acini were incubated in the absence or presence of CCK-8 (100 nM), carbachol (1 μM), bombesin (1 nM), secretin (1 nM) or VIP (1 nM) for 1 min and then lysed. (B) Isolated pancreatic acini were incubated in the absence or presence of CCK-8 and CCK-JMV (at the indicate concentrations) for 3 min and then lysed. Western blots were analyzed using anti-pS3 cofilin, which mediates the activation state of cofilin. Bands were visualized using chemiluminescence and quantified by densitometry."}, "[2]": {"system": "JNK1-3", "conditions": "reversible ATP-competitive; reference not given; cited from earlier work", "text": "(Figure 10) In various tissues with difference stimuli, cofilin dephosphorylation and activation, has been reported to be mediated by PI3K, ROCK and various MAPKs (p38, p44/42, JNK) ([Won et al., 2008]; [Duan et al., 2014]), therefore we assessed their possible role in CCK-8-stimulated cofilin activation. Previous studies have shown that, in pancreatic acini and/or other tissues, CCK-8 activates each of these signaling cascades ([Berna et al., 2009]; [Camello-Almaraz et al., 2009]; [Ramos-Alvarez and Jensen, 2018]; [Ramos-Ãlvarez et al., 2020]). In order to address the role of these signal cas ..."}, "[3]": {"system": "p38α", "conditions": "reference not given; cited from earlier work"}, "[4]": {"system": "p38β", "conditions": "reference not given; cited from earlier work"}, "[5]": {"system": "PP2A / PP1", "conditions": "low concentrations; ref Ishihara et al., 1989; Takai et al., 1992; Lutz et al., 1993; Schmidt et al., 1994; Walsh et al., 1997; cited from earlier work", "text": "(Figures 5, 6) In human T lymphocytes, neurons, the 293 T cell line (human embryonic kidney 293 cells) and HeLa cells, it is reported that activation of cofilin can occur due its dephosphorylation through the co-stimulation activation of accessory receptors (e.g.,.CD2, CD3 or CD28) by CD3xCD28 mAb, with Endothelin-1 (ET-1), and the Ca^2+ ionophore A23187, which is mediated by activation of serine protein phosphatases ([Ambach et al., 2000]; [Wang et al., 2005]; [Tam et al., 2019]). Therefore, to explores the possible role of the protein phosphatases PP1, PP2A, PP2B in CCK-8-induced activation ..."}, "[6]": {"system": "MEK2", "conditions": "non ATP-competitive; reference not given; cited from earlier work"}, "[7]": {"system": "MEK1", "conditions": "non ATP-competitive; reference not given; cited from earlier work"}, "[8]": {"system": "cofilin in human T lymphocytes", "conditions": "stimulated by CD2 or CD28; ref Ambach et al., 2000; cited from earlier work", "text": "(§1) Because our results differ from the general finding that the two major signaling cascades in other tissues mediating cofilin activity, which involve alterations in LIMK and/or SSH1 activity ([Wang et al., 2005]; [Spratley et al., 2011]; [Mizuno, 2013]; [Ohashi, 2015]; [Xu et al., 2021]), were not important in mediating CCK’s activation of cofilin in pancreatic acini, we explored the possible involvement of other phosphatases that have been reported to participate in cofilin activation in other tissues with other stimulants. The activation of the serine/threonine phosphatases type 1 (PP1) or ty ..."}, "[9]": {"system": "PP2A", "conditions": "cited from earlier work", "text": "as §1"}, "[10]": {"system": "parotid acinar cells", "set-up": "method as in Tamaki and Yamashina, 2002", "conditions": "ref Tamaki and Yamashina, 2002; cited from earlier work"}, "[11]": {"system": "pancreas", "set-up": "method as in Waschulewski et al., 1996", "conditions": "ref Waschulewski et al., 1996; cited from earlier work"}, "[12]": {"system": "cofilin / phospho-PP2A association", "assay": "co-immunoprecipitation of cofilin with phospho-PP2A (pY307) in pancreatic acini", "format": "cell-based, rat", "conditions": "legend: kbNB 0.1 µM or PP2 10 µM, 3 h; CCK-8 100 nM, TPA 1 µM", "experimental": "For co-immunoprecipitation, 600 μg of protein was incubated with 15 μL of the anti-cofilin antibody (Santa Cruz Biotechnology, Inc. Dallas, TX) and 25 μL of protein A/G agarose beads (Thermo-Fisher Scientific. Waltham, MA) overnight at 4°C under agitation. Samples were washed three times with lysis buffer, re-suspended in 12.5 μL of Sample Buffer, Laemlii 2x concentrate and boiled for 5 min before western blotting.\nFIGURE 8 Effect of a PKD inhibitor, kbNB, or a Src inhibitor, PP2, on the ability of CCK-8 (100 nM) and TPA (1 µM) to stimulate the association of cofilin with either phospho-PP2A (A) or total PP2A (B). Isolated pancreatic acini were incubated in the absence or presence of kbNB (0.1 µM) or PP2 (10 µM) for 3 h and then incubated with no addition (control), CCK-8 (100 nM, 3 min) or TPA (1 μM, 5 min), and then lysed. Equal amounts of protein were co-immunoprecipitated with an anti-cofilin (Santa Cruz, SC-376476) and then subjected to Western blots using anti-pY307 PP2A and anti-PP2A. Bands were visualized using chemiluminescence and quantified by densitometry. Top: Results of a representative blot of four independent experiments are shown. Bottom: Means ± S.E. of at least 4 independent experiments. Results are expressed as % of basal stimulation of the control group. N.S., No significant."}, "[13]": {"conditions": "3 h, CCK-8 0.3 and 100 nM 3 min"}},
  "data": [
    {"smiles": "Oc1c2ccccc2c2c3c(cccc13)N=N2", "note": "[SP600125]", "values": [
      {"measurement": "reversal of cofilin dephosphorylation by CCK-8", "setting": "[1]; CCK-8 0.3 and 100 nM 3 min", "result": "completely reversed"},
      {"measurement": "IC50", "setting": "[2]", "result": 110, "unit": "nM"}
    ]},
    {"smiles": "Oc1ccc(-c2nc(-c3ccncc3)c(-c3ccc(F)cc3)[nH]2)cc1", "note": "[SB202190]", "values": [
      {"measurement": "reversal of cofilin dephosphorylation by CCK-8", "setting": "[1]; CCK-8 0.3 and 100 nM 3 min", "result": "not PI3K or p38"},
      {"measurement": "IC50", "setting": "[3]", "result": "[…]"},
      {"measurement": "IC50", "setting": "[4]", "result": "[…]"}
    ]},
    {"smiles": "COC[C@@H]([C@H](O)[C@H](O)C(=O)NCC[C@H](C)c1nc(/C=C/C[C@@H]2O[C@]3(C[C@@H](O)[C@@H]2C)O[C@H]([C@H](C[C@H](O)[C@H](C)[C@H](O)[C@H](C)/C=C(C)/C(C)=C/C=C/C(C)=C\\C#N)OC)[C@H](OP(=O)(O)O)C3(C)C)co1)N(C)C", "note": "[calyculin A]", "values": [
      {"measurement": "decrease of basal level of cofilin phosphorylation", "setting": "[1]; 3 h, no stimulant", "result": 24, "unit": "%"},
      {"measurement": "inhibition of cofilin activation stimulated by CCK-8", "setting": "[1]; [13]", "result": "completely inhibited"},
      {"measurement": "selectivity PP1/PP2A/PP2B", "setting": "[5]", "result": "inhibits equally PP1 and PP2A activity, but not PP2B"}
    ]},
    {"smiles": "N#CC(=C(/N)Sc1ccccc1N)/C(C#N)=C(/N)Sc1ccccc1N", "note": "[U0126]", "values": [
      {"measurement": "reversal of cofilin dephosphorylation by CCK-8", "setting": "[1]; CCK-8 0.3 and 100 nM 3 min", "result": "Only preincubation with the JNK inhibitor, SP600125 (Figure 10C), and the ROCK inhibitor, Y-27632, (Figure 10D), completely reversed cofilin dephosphorylation by CCK-8"},
      {"measurement": "IC50", "setting": "[6]", "result": 58, "unit": "nM"},
      {"measurement": "IC50", "setting": "[7]", "result": 72, "unit": "nM"}
    ]},
    {"smiles": "C=CC[C@@H]1/C=C(\\C)C[C@H](C)C[C@H](OC)[C@H]2O[C@@](O)(C(=O)C(=O)N3CCCC[C@H]3C(=O)O[C@H](/C(C)=C/[C@@H]3CC[C@@H](O)[C@H](OC)C3)[C@H](C)[C@@H](O)CC1=O)[C@H](C)C[C@@H]2OC", "note": "[FK-506]", "values": [
      {"measurement": "effect on CCK-8 or TPA's activation of cofilin", "setting": "[1]; FK-506 10 µM 3 h, CCK-8 0.3 and 100 nM 3 min, TPA 1 µM 5 min", "result": "had no effect"},
      {"measurement": "effect on dephosphorylation of cofilin in human T lymphocytes", "setting": "[8]", "result": "did not affect the dephosphorylation of cofilin in human T lymphocytes"}
    ]},
    {"smiles": "C=C1[C@@H](O)[C@@H]2O[C@]3(CC[C@H](/C=C/[C@@H](C)[C@@H]4CC(C)=C[C@@]5(O[C@H](C[C@@](C)(O)C(=O)O)CC[C@H]5O)O4)O3)CC[C@H]2O[C@@H]1[C@@H](O)C[C@H](C)[C@H]1O[C@@]2(CCCCO2)CC[C@H]1C", "note": "[okadaic acid]", "values": [
      {"measurement": "decrease of basal level of cofilin phosphorylation", "setting": "[1]; 3 h, no stimulant", "result": 12, "unit": "%"},
      {"measurement": "inhibition of cofilin activation stimulated by CCK-8", "setting": "[1]; [13]", "result": "completely inhibited"},
      {"measurement": "phosphatase selectivity in pancreatic acini", "setting": "[9]; nanomolar concentrations, pancreatic acini, ref Wagner et al., 1992", "result": "only inhibit PP2A"},
      {"measurement": "IC50", "setting": "[9]; pancreatic acinar cells, ref Lutz et al., 1993, read-out: IC50, CCK1R-stimulated phosphatase activity (PP2A) in cytosol of pancreatic acinar cells", "result": 0.2, "unit": "nM"},
      {"measurement": "greater inhibitory effect on PP2A over PP1", "setting": "[5]", "result": "50-250 fold"},
      {"measurement": "effect on amylase release in parotid acinar cells", "setting": "[10]", "result": "disrupted amylase release in parotid acinar cells"},
      {"measurement": "effect on stimulated enzyme secretion in pancreas", "setting": "[11]", "result": "completely blocked stimulated enzyme secretion in pancreas"}
    ]},
    {"smiles": "CN(C)CCCn1cc(C2=C(c3c[nH]c4ccccc34)C(=O)NC2=O)c2ccccc21", "note": "[GF109203X]", "values": [
      {"measurement": "effect on basal phosphorylation level of cofilin", "setting": "[1]; GFX 5 µM, kbNB 0.1 µM or PP2 10 µM, 3 h, no stimulant", "result": "None of these inhibitors altered the basal phosphorylation level of cofilin"},
      {"measurement": "reversal of cofilin dephosphorylation stimulated by CCK-8 and TPA", "setting": "[1]; GFX 5 µM, kbNB 0.1 µM or PP2 10 µM, 3 h, CCK-8 100 nM 3 min, TPA 1 µM 5 min", "result": "completely reversed"},
      {"measurement": "inhibition of decrease in phospho-PP2A co-immunoprecipitation stimulated by CCK-8 and TPA", "setting": "[12]", "result": "completely inhibited"}
    ]}
  ]
}
